One compound from paper PMC6423038, “Deferiprone: Pan-selective Histone Lysine Demethylase Inhibition Activity and Structure Activity Relationship Study” (Scientific Reports, 2019) can be followed below.

In assay [1] the target is KDM7A (JHDM1D) (Homo sapiens, UniProt Q6ZMT4). The experiment in a line: KDM cell-free assay (AlphaScreen, BPS Bioscience).
The target in assay [2] is KDM4D (JMJD2D) (Homo sapiens, UniProt Q6B0I6). The experiment in a line: KDM cell-free assay (AlphaScreen, BPS Bioscience).
In assay [3] the target is KDM4E (JMJD2E) (Homo sapiens, UniProt B2RXH2). The assay can be described thus: KDM cell-free assay (AlphaScreen, BPS Bioscience). (In general: In Alpha technology, singlet oxygen from a donor bead excites a nearby acceptor bead.)
KDM4E (JMJD2E), sequence (B2RXH2 whole entry): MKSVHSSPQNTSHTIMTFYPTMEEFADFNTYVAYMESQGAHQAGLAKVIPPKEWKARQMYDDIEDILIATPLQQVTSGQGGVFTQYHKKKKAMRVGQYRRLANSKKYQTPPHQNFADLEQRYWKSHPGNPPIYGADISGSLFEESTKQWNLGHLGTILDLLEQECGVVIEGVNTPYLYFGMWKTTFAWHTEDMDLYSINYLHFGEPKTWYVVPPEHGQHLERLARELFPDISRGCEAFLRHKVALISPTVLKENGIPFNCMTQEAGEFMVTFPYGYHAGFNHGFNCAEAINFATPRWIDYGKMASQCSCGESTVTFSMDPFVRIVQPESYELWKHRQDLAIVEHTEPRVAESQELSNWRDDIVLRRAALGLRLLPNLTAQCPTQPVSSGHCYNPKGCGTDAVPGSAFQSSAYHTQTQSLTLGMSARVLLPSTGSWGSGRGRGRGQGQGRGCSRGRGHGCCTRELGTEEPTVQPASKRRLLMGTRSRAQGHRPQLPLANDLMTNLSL
Assay [4] deals with T1, KDM4A (JMJD2A) (Homo sapiens, UniProt O75164).
T1 construct: purchased BPS Bioscience
The experiment in a line: KDM cell-free assay (AlphaScreen, BPS Bioscience). Format: biochemical. Conditions: recombinant human KDM4A (JMJD2A); max tested 25 μM.

Assay [5] relates to HP1-mediated heterochromatin gene repression in CiA:Oct4 embryonic stem cells. The assay can be described thus: HP1-recruitment assay dose curve (CiA:Oct4, with CIP-rapamycin), flow cytometry. The class given is cell-based, mouse. The settings on record: 48 h with CIP-rapamycin recruitment of HP1; up to 10 µM. From the text: To elucidate the effect of DFP-based KDM inhibitors on chromatin dynamics, we profiled them in an intracellular assay which measures heterochromatin formation speed. The chromatin in vivo assay (CiA) leverages chemical induced proximity (CIP) to recruit heterochromatin protein 1 (HP1) to a modified Oct4 locus. This reporter system is composed of tandem arrays of Gal4 and zinc finger DNA binding domains in the promoter of one allele of Oct4, where the gene was replaced by a nuclear eGFP reporter. Protein fusions of Gal4-FKBP and FRB-HP1 allow for direct chemical recruitment of HP1 to the CiA:Oct4 reporter locus upon addition of the chemical inducer of proximity (CIP)-rapamycin. After CIP-rapamycin addition, HP1 is recruited to the reporter locus and brings histone methyltransferase enzymes to the chromatin reporter resulting in the repressive H3K9me3 mark being deposited (Fig. 10A). H3K9me3 deposition is the signature mark of heterochromatin and is coupled with gene silencing and loss of GFP expression (Fig. 10B)[33]. Others have shown that H3K4me3 marked nucleosomes impede H3K9 methyltransferase activity. Thus, we postulate that the active H3K4me3 mark must be removed by KDM enzymes as part of the transformation from euchromatin to heterochromatin. Inhibition of KDMs, specifically those targeting H3K4me3, would result in a decrease in H3K9me3 accumulation, which would be measured in our assay as an increase in GFP positive cells.
To determine the effect of DFP-based KDM inhibitors on HP1-mediated gene repression, we treated CiA:Oct4 embryonic stem (ES) cells with doses of representative compounds ranging from 10 µM–250 nM for 48 h with CIP-rapamycin recruitment of HP1 (Fig. 10C). […] The percentage of GFP(+) cells was determined by flow cytometry as indicated in representative histograms (Supplemental Fig. S8).
Day 0, CiA:Oct4 N118/163 cells were grown in ES media and seeded at a density of 10,000 cells per well in 100 μL media (100,000 cells mL^−1) on gelatin coated 96 well plates. Day 1, culture media was aspirated and replaced with 100 µL ES media containing +/− 6 nM rapamycin. 10 µM, 5 µM, 2.5 µM, 1 µM, 500 nM, and 250 nM concentrations of compound or DMSO were added using a TTP Labtech Mosquito HTS liquid handler. Days 2, fresh ES media +/− rapamycin and compound were added as in Day 1. Day 3, cells were washed with PBS and trypsinized using 0.25% trypsin-EDTA. Trypsin was quenched with serum. Cells were resuspended by pipetting in preparation for flow cytometry analysis.
Flow cytometry data was acquired using the Intellicyt iQue Screener and analyzed with FlowJo software.
The CiA:Oct4 recruitment system in mouse embryonic stem cells contains Gal4 and Zinc finger DNA binding arrays and a downstream nuclear eGFP gene in place of a single Oct4 allele as previously described.^30 The CiA:Oct4 N118/N163 cell line containing viral integrations of N118 and N163 plasmids (N118- nLV EF-1α-Gal-FKBPx1-HA-PGK-Blast, N163- nLV EF-1α-HP1α (CS)-Frbx2(Frb+FrbWobb)-V5-PGK-Puro) was used for inhibition of HP1-mediated heterochromatin studies. All plasmids are freely available on addgene.
HP1-Recruitment Assay Dose Curve. Day 0, CiA:Oct4 N118/163 cells were grown in ES media and seeded at a density of 10,000 cells per well in 100 µL media (100,000 cells mL^-1) on gelatin coated 96 well plates. Day 1, culture media was aspirated and replaced with 100 µL ES media containing +/- 6 nM rapamycin. 10 µM, 5 µM, 2.5 µM, 1 µM, 500 nM, and 250 nM concentrations of compound or DMSO were added using a TTP Labtech Mosquito HTS liquid handler. Days 2, fresh ES media +/- rapamycin and compound were added as in Day 1. Day 3, cells were washed with PBS and trypsinized using 0.25% trypsin-EDTA. Trypsin was quenched with serum. Cells were resuspended by pipetting in preparation for flow cytometry analysis.
Flow Cytometry and Analysis.
A general note: A flow cytometer gives signals particle by particle.

Assay [6] has as its target KDM1A (LSD1) (Homo sapiens, UniProt O60341). The assay can be described thus: KDM cell-free assay (AlphaScreen, BPS Bioscience).
The target of assay [7] is KDM5C (Jarid1C) (Homo sapiens, UniProt P41229). The assay can be described thus: KDM cell-free assay (AlphaScreen, BPS Bioscience).
KDM5C (Jarid1C), sequence (P41229 whole entry): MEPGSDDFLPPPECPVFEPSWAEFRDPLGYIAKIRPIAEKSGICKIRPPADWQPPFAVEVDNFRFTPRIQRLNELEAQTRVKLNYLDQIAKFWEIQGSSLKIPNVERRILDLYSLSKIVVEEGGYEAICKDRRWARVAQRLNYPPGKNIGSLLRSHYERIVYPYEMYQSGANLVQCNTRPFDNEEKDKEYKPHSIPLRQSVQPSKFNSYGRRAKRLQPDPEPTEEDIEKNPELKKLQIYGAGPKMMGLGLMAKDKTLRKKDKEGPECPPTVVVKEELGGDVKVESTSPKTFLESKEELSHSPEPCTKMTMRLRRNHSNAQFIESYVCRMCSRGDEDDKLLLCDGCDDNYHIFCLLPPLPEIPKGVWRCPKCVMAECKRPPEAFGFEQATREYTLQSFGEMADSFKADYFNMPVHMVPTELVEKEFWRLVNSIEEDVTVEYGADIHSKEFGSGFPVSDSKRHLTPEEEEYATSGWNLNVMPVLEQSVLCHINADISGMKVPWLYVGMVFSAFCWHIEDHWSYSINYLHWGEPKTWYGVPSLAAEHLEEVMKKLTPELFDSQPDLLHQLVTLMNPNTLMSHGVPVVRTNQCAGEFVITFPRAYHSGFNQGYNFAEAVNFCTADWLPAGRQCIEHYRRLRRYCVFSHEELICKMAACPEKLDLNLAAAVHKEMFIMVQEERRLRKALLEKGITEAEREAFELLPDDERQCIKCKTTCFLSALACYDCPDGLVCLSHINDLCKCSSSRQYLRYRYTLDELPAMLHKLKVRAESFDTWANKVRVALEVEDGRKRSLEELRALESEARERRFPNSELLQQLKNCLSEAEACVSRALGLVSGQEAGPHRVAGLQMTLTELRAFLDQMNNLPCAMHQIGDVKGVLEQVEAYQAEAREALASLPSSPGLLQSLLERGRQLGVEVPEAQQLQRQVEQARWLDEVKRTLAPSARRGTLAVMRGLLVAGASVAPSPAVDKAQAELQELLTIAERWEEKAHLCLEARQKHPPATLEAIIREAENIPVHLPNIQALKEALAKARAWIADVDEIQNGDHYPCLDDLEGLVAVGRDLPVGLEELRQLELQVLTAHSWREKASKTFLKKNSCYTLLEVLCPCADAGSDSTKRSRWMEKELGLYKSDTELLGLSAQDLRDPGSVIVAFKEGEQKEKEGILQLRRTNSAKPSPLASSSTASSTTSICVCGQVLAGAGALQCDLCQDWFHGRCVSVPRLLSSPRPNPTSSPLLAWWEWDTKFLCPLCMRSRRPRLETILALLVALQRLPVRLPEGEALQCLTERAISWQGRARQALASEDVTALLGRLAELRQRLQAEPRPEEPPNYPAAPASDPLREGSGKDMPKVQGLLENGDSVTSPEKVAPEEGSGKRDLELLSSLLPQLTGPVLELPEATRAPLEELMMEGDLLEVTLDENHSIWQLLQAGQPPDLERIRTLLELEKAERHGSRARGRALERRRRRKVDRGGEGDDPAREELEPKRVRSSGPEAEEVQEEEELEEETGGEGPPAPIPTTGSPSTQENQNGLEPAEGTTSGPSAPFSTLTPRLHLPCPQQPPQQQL
Assay [8] addresses KDM3A (JMJD1A) (Homo sapiens, UniProt Q9Y4C1). The experiment in a line: KDM cell-free assay (AlphaScreen, BPS Bioscience).
Assay [9] addresses KDM5A (Jarid1A) (Homo sapiens, UniProt P29375). The assay can be described thus: KDM cell-free assay (AlphaScreen, BPS Bioscience).
Assay [10] concerns the target KDM7B (PHF8) (Homo sapiens, UniProt Q9UPP1). The experiment in a line: KDM cell-free assay (AlphaScreen, BPS Bioscience).
In assay [11] the target is KDM4C (JMJD2C) (Homo sapiens, UniProt Q9H3R0). The experiment in a line: KDM cell-free assay (AlphaScreen, BPS Bioscience).
KDM4C (JMJD2C), sequence (Q9H3R0 whole entry): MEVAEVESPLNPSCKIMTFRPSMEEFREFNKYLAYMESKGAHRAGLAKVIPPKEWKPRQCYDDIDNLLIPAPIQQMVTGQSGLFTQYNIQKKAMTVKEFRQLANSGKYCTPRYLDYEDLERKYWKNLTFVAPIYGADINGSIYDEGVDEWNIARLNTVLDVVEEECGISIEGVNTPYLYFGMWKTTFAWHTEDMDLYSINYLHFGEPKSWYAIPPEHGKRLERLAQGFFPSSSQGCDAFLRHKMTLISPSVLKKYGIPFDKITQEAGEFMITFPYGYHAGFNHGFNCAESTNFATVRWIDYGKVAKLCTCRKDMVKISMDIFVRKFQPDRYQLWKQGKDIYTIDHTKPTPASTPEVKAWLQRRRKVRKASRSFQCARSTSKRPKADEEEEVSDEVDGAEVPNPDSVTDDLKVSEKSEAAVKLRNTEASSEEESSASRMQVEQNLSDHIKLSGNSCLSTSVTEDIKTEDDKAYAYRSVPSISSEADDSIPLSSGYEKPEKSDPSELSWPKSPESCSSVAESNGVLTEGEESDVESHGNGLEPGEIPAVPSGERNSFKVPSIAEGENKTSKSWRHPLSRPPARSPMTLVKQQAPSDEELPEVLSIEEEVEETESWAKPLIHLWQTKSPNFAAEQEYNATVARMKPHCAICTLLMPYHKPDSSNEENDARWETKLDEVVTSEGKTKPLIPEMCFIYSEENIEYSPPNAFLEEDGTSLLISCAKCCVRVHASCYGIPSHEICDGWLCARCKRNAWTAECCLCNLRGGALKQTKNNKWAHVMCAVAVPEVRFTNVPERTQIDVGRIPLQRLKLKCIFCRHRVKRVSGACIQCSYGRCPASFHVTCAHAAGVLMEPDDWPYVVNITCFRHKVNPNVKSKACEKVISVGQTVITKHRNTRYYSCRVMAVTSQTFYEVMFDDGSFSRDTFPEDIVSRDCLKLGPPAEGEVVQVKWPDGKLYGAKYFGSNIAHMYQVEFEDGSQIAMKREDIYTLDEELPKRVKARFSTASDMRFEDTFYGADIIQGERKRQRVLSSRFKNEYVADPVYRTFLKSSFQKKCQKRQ

KDM7B (PHF8), sequence (Q9UPP1 whole entry): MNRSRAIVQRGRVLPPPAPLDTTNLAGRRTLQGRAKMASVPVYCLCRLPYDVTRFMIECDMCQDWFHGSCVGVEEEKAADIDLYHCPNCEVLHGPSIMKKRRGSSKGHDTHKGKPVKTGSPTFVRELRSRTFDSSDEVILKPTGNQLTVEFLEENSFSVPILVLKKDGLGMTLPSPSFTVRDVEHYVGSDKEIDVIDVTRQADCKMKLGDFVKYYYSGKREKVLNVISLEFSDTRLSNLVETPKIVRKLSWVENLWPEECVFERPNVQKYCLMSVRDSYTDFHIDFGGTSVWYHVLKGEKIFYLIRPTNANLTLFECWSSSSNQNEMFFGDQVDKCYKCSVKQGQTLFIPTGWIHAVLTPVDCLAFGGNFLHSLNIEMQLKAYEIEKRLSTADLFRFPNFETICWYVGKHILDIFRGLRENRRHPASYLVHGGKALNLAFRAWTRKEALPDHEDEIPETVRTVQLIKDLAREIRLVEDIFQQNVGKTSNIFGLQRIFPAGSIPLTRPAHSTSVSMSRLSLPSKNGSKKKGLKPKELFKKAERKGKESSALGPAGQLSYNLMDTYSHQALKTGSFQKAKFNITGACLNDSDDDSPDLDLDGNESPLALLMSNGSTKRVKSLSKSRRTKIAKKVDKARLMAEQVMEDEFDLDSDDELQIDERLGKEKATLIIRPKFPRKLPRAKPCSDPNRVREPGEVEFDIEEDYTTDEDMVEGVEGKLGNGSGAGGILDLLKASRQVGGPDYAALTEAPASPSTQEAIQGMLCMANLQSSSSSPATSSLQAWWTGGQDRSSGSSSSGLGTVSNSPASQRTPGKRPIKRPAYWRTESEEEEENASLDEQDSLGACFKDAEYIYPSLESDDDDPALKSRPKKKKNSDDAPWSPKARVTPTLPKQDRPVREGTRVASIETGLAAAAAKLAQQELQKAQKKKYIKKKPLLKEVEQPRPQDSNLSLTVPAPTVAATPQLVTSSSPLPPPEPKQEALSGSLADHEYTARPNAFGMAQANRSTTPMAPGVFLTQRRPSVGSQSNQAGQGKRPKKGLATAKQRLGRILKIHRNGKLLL
KDM7A (JHDM1D), sequence (Q6ZMT4 whole entry): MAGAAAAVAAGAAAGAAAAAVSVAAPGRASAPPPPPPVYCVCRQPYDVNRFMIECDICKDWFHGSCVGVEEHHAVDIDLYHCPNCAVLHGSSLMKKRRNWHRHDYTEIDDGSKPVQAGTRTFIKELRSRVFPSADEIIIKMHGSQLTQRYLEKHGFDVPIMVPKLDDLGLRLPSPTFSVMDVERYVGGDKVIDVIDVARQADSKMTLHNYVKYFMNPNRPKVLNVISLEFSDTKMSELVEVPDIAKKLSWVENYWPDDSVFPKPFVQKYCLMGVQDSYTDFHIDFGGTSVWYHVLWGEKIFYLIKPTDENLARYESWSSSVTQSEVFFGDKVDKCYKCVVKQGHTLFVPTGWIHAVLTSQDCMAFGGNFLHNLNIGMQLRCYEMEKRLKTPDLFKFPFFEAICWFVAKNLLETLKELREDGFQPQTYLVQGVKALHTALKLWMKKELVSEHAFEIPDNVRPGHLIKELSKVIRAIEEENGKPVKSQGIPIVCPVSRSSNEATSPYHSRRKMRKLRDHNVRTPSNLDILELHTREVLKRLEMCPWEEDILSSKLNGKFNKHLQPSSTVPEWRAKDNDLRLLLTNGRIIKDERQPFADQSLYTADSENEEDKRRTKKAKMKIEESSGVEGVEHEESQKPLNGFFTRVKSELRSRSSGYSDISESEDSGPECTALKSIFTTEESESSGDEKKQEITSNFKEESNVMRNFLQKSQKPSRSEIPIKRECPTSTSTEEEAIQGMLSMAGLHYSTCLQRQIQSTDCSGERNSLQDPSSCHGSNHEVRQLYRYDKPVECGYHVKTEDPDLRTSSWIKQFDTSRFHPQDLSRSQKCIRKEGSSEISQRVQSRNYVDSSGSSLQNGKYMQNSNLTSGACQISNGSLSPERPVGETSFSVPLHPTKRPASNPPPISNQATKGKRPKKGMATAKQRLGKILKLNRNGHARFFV

Turning to `Cc1c(O)c(=O)ccn1C` [DFP, Deferiprone], the IC50 (commonly the concentration that gives 50% inhibition) is 16.6 µM in assay [1]; > 25 µM in assay [2]; > 25 µM in assay [3]; > 25 µM in assay [4]; > 25 µM in assay [6]; 5.6 µM in [7]. Moreover, the IC50 in assay [8] is > 25 µM; in assay [9] it was > 25 µM; in assay [10] it was 15.6 µM; in assay [11], > 25 µM. The “inhibition of heterochromatin formation” value in assay [5] is reported as “did not inhibit heterochromatin formation”.
